Results reported in article PMC5762315, “Inhibition of polo-like kinase 4 (PLK4): a new therapeutic option for rhabdoid tumors and pediatric medulloblastoma” (Oncotarget, 2017).
Values joined by “and” are separate entries in the source; they are usually repeats but may differ in a detail not shown here. Equal entries are not always repeated.

How the values were obtained:
Assay in all cases: biochemical
Format in all cases: biochemical
various kinases [1] = biological target: various kinases (Homo sapiens, UniProt Q14289); conditions: kinase PTK2B (FAK2); ZLYTE
various kinases [2] = biological target: various kinases (Homo sapiens, UniProt P06239); conditions: LCK
various kinases [3] = biological target: various kinases (Homo sapiens, UniProt O75116); conditions: kinase ROCK2; ZLYTE
various kinases [4] = biological target: various kinases (Homo sapiens, UniProt Q8N4C8); conditions: MINK1
various kinases [5] = biological target: T1, various kinases (Homo sapiens, UniProt Q13188); conditions: kinase STK3 (MST2); ZLYTE
T1 sequence (Q13188 1-491): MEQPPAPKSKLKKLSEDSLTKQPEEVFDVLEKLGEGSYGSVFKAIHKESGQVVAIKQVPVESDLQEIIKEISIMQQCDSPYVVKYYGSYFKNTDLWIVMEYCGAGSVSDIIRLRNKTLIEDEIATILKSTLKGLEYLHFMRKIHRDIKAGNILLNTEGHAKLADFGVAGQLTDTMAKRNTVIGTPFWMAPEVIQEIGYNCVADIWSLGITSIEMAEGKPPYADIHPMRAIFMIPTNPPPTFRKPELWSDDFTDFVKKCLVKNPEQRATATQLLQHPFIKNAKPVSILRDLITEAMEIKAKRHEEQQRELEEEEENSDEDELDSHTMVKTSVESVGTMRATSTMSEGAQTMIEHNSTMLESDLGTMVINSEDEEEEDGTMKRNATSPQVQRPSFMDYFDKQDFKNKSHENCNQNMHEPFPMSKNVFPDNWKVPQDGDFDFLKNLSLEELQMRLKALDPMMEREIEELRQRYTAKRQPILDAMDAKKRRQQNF

various kinases [6] = biological target: various kinases (Homo sapiens, UniProt Q9Y6M4); conditions: CSNK1G3 (CK1 gamma 3)
various kinases [7] = conditions: for % Inhibition Average / % Inhibition Duplicate #1 / % Inhibition Duplicate #2: ZLYTE
various kinases [8] = biological target: T2, various kinases (Homo sapiens, UniProt O00141); conditions: kinase SGK (SGK1); ZLYTE
T2 sequence (O00141 1-431): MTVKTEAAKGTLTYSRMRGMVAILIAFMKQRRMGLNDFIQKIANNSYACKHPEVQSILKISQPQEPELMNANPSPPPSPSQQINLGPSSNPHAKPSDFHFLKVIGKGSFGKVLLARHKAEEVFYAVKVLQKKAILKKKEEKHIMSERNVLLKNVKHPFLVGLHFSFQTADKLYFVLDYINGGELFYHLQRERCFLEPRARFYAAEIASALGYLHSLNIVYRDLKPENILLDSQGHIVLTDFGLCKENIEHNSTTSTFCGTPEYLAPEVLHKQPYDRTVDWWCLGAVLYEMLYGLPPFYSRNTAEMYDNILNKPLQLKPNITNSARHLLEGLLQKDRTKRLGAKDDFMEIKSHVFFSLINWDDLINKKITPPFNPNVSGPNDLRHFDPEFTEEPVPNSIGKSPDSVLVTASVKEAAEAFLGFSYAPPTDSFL

various kinases [9] = biological target: various kinases (Homo sapiens, UniProt Q13131)
various kinases [10] = biological target: various kinases (Homo sapiens, UniProt Q02750); conditions: MAP2K1 (MEK1)
various kinases [11] = biological target: T3, various kinases (Homo sapiens, UniProt Q9BZL6); conditions: kinase PRKD2 (PKD2); ZLYTE
T3 sequence (Q9BZL6 1-878): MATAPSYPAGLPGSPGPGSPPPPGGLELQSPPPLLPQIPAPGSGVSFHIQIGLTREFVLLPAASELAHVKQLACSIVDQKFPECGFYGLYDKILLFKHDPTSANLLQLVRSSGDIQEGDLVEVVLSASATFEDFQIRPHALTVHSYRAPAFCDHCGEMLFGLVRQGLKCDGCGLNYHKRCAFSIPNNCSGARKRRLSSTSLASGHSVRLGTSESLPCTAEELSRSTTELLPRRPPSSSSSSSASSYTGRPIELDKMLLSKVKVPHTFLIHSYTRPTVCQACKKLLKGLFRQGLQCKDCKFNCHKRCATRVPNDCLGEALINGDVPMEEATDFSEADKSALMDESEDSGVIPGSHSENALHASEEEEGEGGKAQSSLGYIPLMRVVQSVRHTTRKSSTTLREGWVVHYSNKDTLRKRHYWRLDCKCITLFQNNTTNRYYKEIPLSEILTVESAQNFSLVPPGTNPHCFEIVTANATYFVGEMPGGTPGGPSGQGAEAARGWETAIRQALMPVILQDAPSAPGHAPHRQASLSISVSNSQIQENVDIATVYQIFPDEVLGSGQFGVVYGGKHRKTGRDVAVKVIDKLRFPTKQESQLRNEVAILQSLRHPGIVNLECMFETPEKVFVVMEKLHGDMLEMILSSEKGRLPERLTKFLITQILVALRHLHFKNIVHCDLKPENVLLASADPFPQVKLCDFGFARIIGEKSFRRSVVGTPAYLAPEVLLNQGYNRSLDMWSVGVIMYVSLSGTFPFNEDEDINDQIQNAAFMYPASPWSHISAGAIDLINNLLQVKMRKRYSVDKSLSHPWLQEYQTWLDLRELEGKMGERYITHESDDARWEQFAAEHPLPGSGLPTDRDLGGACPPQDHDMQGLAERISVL

various kinases [12] = biological target: various kinases (Homo sapiens, UniProt P54646)
various kinases [13] = biological target: various kinases (Homo sapiens, UniProt P27448); conditions: MARK3
Throughout, for % Inhibition Average: test concentration or dose not given here.
Throughout, for % Inhibition Duplicate #1: test concentration or dose not given here.
Throughout, for % Inhibition Duplicate #2: test concentration or dose not given here.

Chain of various kinases (Homo sapiens, UniProt Q14289) (Q14289 whole entry): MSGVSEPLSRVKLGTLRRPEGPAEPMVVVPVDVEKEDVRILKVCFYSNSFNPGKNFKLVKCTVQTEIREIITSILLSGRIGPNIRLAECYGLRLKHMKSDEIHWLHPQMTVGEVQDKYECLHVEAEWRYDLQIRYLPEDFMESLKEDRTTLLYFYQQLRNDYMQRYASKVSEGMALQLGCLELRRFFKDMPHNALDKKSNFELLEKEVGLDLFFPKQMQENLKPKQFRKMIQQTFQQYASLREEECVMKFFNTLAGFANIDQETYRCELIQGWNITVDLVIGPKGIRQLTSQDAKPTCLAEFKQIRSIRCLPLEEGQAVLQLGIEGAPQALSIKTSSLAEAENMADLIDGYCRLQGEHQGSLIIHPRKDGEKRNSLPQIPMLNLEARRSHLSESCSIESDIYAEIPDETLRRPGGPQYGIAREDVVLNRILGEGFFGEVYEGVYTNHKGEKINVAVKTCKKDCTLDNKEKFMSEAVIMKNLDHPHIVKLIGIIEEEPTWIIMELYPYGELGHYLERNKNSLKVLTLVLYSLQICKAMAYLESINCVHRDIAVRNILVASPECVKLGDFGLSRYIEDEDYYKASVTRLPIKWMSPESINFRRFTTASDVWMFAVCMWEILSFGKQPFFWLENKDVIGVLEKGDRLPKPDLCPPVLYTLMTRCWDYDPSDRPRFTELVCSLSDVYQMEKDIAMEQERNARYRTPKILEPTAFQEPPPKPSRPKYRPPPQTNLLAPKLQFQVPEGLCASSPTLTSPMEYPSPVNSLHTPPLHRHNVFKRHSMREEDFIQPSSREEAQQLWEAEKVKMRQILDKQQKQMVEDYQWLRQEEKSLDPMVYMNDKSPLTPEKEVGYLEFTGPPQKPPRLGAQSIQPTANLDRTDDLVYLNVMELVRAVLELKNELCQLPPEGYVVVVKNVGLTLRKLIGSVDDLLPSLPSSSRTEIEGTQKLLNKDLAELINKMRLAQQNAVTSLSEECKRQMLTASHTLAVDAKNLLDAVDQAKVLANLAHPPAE
Chain of various kinases (Homo sapiens, UniProt Q13131) (Q13131 whole entry): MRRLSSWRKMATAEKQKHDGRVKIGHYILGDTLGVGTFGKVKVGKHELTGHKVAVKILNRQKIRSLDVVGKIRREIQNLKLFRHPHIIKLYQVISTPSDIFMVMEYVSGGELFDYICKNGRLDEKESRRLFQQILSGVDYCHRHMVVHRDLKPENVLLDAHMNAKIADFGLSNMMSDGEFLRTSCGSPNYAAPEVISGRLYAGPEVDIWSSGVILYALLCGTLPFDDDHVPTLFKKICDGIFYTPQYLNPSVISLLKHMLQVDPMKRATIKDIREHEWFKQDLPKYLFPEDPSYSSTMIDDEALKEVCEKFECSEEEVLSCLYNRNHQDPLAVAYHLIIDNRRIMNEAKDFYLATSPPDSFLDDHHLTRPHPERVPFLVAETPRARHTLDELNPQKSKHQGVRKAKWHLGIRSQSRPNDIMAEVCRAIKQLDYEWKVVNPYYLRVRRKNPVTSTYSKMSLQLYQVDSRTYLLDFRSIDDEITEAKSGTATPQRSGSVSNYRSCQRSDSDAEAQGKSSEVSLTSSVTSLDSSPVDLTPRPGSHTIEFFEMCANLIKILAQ
Chain of various kinases (Homo sapiens, UniProt P54646) (P54646 whole entry): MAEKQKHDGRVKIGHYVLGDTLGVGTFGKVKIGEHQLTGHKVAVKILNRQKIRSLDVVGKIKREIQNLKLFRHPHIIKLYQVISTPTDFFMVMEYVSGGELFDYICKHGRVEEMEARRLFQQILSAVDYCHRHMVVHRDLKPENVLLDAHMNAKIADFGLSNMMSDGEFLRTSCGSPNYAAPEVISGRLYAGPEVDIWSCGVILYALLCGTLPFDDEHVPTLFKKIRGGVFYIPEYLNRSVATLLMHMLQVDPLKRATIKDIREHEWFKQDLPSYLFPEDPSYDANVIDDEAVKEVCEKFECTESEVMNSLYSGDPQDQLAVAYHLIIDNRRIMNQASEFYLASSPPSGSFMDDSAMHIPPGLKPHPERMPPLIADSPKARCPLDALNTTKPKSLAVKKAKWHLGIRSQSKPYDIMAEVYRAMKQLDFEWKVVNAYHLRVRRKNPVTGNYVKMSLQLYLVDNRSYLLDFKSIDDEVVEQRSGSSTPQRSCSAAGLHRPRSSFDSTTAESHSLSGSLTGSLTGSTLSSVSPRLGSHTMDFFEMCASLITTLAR
Chain of various kinases (Homo sapiens, UniProt O75116) (O75116 whole entry): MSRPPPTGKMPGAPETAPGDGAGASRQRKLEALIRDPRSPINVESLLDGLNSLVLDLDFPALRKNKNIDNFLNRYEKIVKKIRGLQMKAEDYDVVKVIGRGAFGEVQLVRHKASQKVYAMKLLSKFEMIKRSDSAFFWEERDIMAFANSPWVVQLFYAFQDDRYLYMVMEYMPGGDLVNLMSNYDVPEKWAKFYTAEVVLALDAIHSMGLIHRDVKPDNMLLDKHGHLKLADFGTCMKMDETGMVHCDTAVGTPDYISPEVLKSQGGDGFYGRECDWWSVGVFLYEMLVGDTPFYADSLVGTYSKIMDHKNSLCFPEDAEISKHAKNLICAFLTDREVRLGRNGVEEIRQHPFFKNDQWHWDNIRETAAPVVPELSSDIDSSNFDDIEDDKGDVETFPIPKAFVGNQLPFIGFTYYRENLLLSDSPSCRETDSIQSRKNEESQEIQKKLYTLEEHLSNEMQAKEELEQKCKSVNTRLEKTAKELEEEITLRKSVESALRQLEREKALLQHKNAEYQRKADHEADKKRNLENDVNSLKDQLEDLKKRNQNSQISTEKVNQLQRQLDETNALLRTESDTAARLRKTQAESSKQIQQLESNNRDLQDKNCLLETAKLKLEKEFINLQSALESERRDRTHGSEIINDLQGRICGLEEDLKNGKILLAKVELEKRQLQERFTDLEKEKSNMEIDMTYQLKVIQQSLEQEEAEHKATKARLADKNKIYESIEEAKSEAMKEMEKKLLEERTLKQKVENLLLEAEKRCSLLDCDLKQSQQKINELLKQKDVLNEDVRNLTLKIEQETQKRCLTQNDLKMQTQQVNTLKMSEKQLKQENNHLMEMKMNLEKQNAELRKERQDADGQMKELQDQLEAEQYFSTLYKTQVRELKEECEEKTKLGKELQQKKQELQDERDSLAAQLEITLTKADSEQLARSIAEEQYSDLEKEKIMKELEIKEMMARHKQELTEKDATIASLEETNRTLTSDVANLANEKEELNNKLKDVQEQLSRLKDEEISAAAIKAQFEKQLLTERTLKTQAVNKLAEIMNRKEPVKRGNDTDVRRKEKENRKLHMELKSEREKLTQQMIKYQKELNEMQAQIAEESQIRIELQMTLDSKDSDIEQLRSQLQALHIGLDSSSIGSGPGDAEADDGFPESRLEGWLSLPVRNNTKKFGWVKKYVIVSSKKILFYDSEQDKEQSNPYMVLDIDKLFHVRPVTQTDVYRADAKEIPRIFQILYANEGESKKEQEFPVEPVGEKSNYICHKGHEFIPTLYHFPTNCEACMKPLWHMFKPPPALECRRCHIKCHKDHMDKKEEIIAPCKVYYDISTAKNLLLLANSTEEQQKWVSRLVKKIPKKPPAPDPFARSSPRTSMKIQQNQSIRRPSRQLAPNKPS
Chain of various kinases (Homo sapiens, UniProt Q8N4C8) (Q8N4C8 whole entry): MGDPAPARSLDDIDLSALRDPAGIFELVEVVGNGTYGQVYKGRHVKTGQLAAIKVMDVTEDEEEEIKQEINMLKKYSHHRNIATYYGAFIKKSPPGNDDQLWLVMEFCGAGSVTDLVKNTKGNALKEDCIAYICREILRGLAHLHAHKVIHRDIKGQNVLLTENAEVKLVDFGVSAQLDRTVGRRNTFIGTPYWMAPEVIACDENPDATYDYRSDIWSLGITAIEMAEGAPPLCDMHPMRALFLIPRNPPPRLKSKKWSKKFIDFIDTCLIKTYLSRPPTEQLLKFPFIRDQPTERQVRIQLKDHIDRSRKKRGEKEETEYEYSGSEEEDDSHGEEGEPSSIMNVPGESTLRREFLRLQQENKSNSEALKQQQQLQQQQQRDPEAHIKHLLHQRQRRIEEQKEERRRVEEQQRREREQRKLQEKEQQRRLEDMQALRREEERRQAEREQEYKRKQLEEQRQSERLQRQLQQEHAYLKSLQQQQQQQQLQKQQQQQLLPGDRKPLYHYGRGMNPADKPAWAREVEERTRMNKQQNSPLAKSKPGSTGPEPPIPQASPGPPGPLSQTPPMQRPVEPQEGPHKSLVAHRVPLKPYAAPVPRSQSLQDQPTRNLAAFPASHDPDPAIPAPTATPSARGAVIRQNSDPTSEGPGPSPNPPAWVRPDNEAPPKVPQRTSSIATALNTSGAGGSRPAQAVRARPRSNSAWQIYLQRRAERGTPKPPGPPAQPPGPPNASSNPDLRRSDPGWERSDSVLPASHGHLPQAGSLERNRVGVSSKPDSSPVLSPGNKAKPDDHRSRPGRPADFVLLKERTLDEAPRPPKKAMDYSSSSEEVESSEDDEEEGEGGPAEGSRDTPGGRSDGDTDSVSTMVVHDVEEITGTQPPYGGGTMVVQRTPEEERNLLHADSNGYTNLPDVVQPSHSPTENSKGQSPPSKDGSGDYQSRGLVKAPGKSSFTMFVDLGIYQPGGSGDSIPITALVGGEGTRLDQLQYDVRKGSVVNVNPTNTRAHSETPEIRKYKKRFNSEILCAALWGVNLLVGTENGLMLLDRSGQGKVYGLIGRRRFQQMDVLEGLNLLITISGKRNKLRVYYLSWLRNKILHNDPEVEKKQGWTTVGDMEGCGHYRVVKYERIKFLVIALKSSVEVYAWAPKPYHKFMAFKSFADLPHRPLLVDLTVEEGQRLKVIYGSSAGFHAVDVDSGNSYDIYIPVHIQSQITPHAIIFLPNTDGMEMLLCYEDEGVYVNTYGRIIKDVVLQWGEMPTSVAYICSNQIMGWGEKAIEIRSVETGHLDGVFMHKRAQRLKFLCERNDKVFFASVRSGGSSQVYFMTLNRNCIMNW

## COc1ccc2c(c1)[C@]1(C[C@H]1c1ccc3c(/C=C/c4ccc(CN5C[C@@H](C)O[C@@H](C)C5)cc4)n[nH]c3c1)C(=O)N2 [CFI-400945]
Various kinases [1]
  % Inhibition Average: 3%
  % Inhibition Duplicate #1: 3%
  % Inhibition Duplicate #2: 3%
Various kinases [2]
  % Inhibition: 39% and 40%
Various kinases [3]
  % Inhibition Average: 1%
  % Inhibition Duplicate #1: 1%
  % Inhibition Duplicate #2: 1%
Various kinases [4]
  % Inhibition: 12% and 18%
Various kinases [5]
  % Inhibition Average: 13%
  % Inhibition Duplicate #1: 15%
  % Inhibition Duplicate #2: 12%
Various kinases [6]
  % Inhibition: 2% and -1%
Various kinases [7]; LYN B
  % Inhibition: 7% and 9%
Various kinases [7]; kinase PRKCB2 (PKC beta II)
  % Inhibition Average: 13%
  % Inhibition Duplicate #1: 12%
  % Inhibition Duplicate #2: 14%
Various kinases [7]; kinase SRC N1
  % Inhibition Average: 14%
  % Inhibition Duplicate #1: 14%
  % Inhibition Duplicate #2: 14%
Various kinases [8]
  % Inhibition Average: 8%
  % Inhibition Duplicate #1: 9%
  % Inhibition Duplicate #2: 7%
Various kinases [9]; AMPK (A1/B2/G2)
  % Inhibition: 25% and 20%
Various kinases [9]; AMPK (A1/B2/G3)
  % Inhibition: 13% and 21%
Various kinases [9]; AMPK A1/B1/G1
  % Inhibition: 14% and 9%
Various kinases [10]
  % Inhibition: 9%
Various kinases [11]
  % Inhibition Average: 2%
  % Inhibition Duplicate #1: 0%
  % Inhibition Duplicate #2: 4%
Various kinases [12]; AMPK (A2/B1/G2)
  % Inhibition: 27% and 22%
Various kinases [12]; AMPK (A2/B1/G3)
  % Inhibition: 9% and 15%
Various kinases [12]; AMPK (A2/B2/G3)
  % Inhibition: 9% and 10%
Various kinases [12]; AMPK A2/B1/G1
  % Inhibition: 5% and 6%
Various kinases [13]
  % Inhibition: 9% and 19%
